Values of other authors in patent publication US20110178105A1, “CLINICAL BENEFITS OF EICOSAPENTAENOIC ACID IN HUMANS” (E.I. DU PONT DE NEMOURS AND COMPANY, priority 2010, published 2011).

Conditions: human, in vivo; cited from earlier work

Substance: vitamin E
- benefit in post-myocardial infarction patients: no benefit
